Data published in patent US5625043A, “Anthracyclines with unusually high activity against cells resistant to doxorubicin and its analogs” (Priebe; Waldemar, priority 1995, dated 1997).
Values after ≈ are worked out from the molar mass of the structure shown. “Also recorded” adds a separate entry of the source. Where two headings read alike, the source gives them in different places.

Experiments:
[1] = system: KB 3-1 cells; experiment: MTT cytotoxicity assay, DOX-sensitive KB 3-1 cells; type: cell-based; settings: Homo sapiens
Experimental: An MTT assay was performed to determine the cytotoxicity of DOX, WP 546, and WP 549 to KB 3-1 (DOX-sensitive) and KB V1 (DOX-resistant) cells. The assay was performed as follows:
(§1) Doxorubicin was obtained from the Hospital Pharmacy (Adriamycin, Adria Laboratories, Columbus, Ohio). KB 3-1 human carcinoma and KB V1 were obtained from Dr. Michael M. Gottesman at the National Cancer Institute. KB V1 cells have the MDR phenotype and express glycoprotein P-170 in their membrane (Akiyama et al., Somat. Cell. Mol. Genet., 11:117, 1985; Shen et al., J. Biol. Chem., 261:7762, 1986.). KB 3-1 and KB V1 cells were grown in monolayers in Dulbecco's modified Eagle's medium containing 10% fetal bovine serum. For KB V1 cells, vinblastine was added to the culture medium (final concentration 0.5 μg/ml).
(§2) In vitro drug cytotoxicites against KB 3-1 and KB V1 cells were assessed by using the MTT reduction assay, as previously reported (Green et al., J. Immunol. Methods., 70:257, 1984). The MTT dye was obtained from Sigma Chemical Company, St. Louis, Mo. Cells were plated in 96-well microassay culture plates (10^4 cells/well) and grown for 24 h at 37° C. in a 5% CO2 incubator. Drugs were then added to the wells to achieve a final drug concentration ranging from 0.1 to 50 μg/ml (eight wells were used for each different concentration). The same volume of 0.9% NaCl solution in water with 1% DMSO was added to control wells. Wells containing culture medium alone without cells were used as blanks. The plates were incubated at 37° C. in a 5% CO2 incubator for 1 h (KB cells). When incubation was complete, 15 μl of stock solution of MTT dye in 0.9% NaCl solution in water was added to each well to achieve a final dye concentration of 0.5 mg/ml. […] The optical density of each well was then measured with a microplate spectrophotometer at a wavelength of 600 nm. The percent cell viability was calculated by the following equation: [formula]
(§3) The percent cell viability values obtained were plotted against the drug concentrations used, and the ID50 was calculated from the curve. […]

[2] = system: KB V1 cells; experiment: MTT cytotoxicity assay, DOX-resistant (MDR) KB V1 cells; type: cell-based, human; settings: for IC50: Homo sapiens; for RI (ID50 KB V1/ID50 KB 3-1): KB V1 versus KB 3-1; for cytotoxicity (in words): KB V1 (MDR, DOX-resistant)
Experimental: The assay was performed as follows:
as §1, with “KB V1 cells have the MDR phenotype and express glycoprotein P-170 in their membrane (Akiyama et al., Somat. Cell. Mol. Genet., 11:117, 1985; Shen et al., J. Biol. Chem., 261:7762, 1986.).” left out
The MTT dye was obtained from Sigma Chemical Company, St. Louis, Mo. Cells were plated in 96-well microassay culture plates (10^4 cells/well) and grown for 24 h at 37° C. in a 5% CO2 incubator. Drugs were then added to the wells to achieve a final drug concentration ranging from 0.1 to 50 μg/ml (eight wells were used for each different concentration). The same volume of 0.9% NaCl solution in water with 1% DMSO was added to control wells. Wells containing culture medium alone without cells were used as blanks. The plates were incubated at 37° C. in a 5% CO2 incubator for 1 h (KB cells). When incubation was complete, 15 μl of stock solution of MTT dye in 0.9% NaCl solution in water was added to each well to achieve a final dye concentration of 0.5 mg/ml. The plate was incubated at 37° C. in a 5% CO2 incubator for 4 h. […] Complete solubilization was achieved by placing the plate in a mechanical shaker for 30 minutes at room temperature. The optical density of each well was then measured with a microplate spectrophotometer at a wavelength of 600 nm. The percent cell viability was calculated by the following equation: [formula]
(§4) The percent cell viability values obtained were plotted against the drug concentrations used, and the ID50 was calculated from the curve. Experiments were repeated at least three time.

[3] = system: J774.2 cells; experiment: Cytotoxicity against J774.2 cells; type: cell-based, murine; settings: for IC50: Mus musculus
[4] = system: J7/A300 cells; experiment: Cytotoxicity against AD 198-resistant J7/A300 cells; type: cell-based, murine; settings: for RI J7/A300: J7/A300 versus J774.2; for IC50: Mus musculus; for cytotoxicity (in words): J7/A300, AD 198-resistant
[5] = system: J7/40V cells; experiment: Cytotoxicity against vinblastine-resistant J7/40V cells; type: cell-based, murine; settings: for RI J7/40V: J7/40V versus J774.2; for IC50: Mus musculus; for cytotoxicity (in words): vinblastine-resistant
[6] = versus same dose by bolus injections; cited from earlier work
[7] = cited from earlier work
[8] = system: P388 (S) cells; experiment: MTT cytotoxicity assay, AD 198-sensitive P388 (S) cells; type: cell-based, murine; settings: Mus musculus, ± S.E., read-out: ID50 (the source's name)
Experimental: as §2, with “mg/ml. The plate was incubated at 37° C. in a 5% CO2 incubator for 4 h.” for “mg/ml.”
as §3

[9] = system: P388 (R) cells; experiment: MTT cytotoxicity assay, AD 198-resistant P388 (R) cells; type: cell-based, murine; settings: for IC50: Mus musculus, P388 (R), ± S.E., read-out: ID50 (the source's name); for RI: P388 (R) versus P388 (S); for cytotoxicity (in words): P388 AD 198-resistant
Experimental: In vitro drug cytotoxicites against KB 3-1 and KB V1 cells were assessed by using the MTT reduction assay, as previously reported (Green et al., J. Immunol. Methods., 70:257, 1984). The MTT dye was obtained from Sigma Chemical Company, St. Louis, Mo. Cells were plated in 96-well microassay culture plates (10^4 cells/well) and grown for 24 h at 37° C. in a 5% CO2 incubator. Drugs were then added to the wells to achieve a final drug concentration ranging from 0.1 to 50 μg/ml (eight wells were used for each different concentration). The same volume of 0.9% NaCl solution in water with 1% DMSO was added to control wells. Wells containing culture medium alone without cells were used as blanks. The plates were incubated at 37° C. in a 5% CO2 incubator for 1 h (KB cells). When incubation was complete, 15 μl of stock solution of MTT dye in 0.9% NaCl solution in water was added to each well to achieve a final dye concentration of 0.5 mg/ml. The plate was incubated at 37° C. in a 5% CO2 incubator for 4 h. Subsequently, 100 μl of medium was removed from each well from the upper ]K<id,KD layer, and 100 μl of DMSO was added to solubilize the MTT formazan. Complete solubilization was achieved by placing the plate in a mechanical shaker for 30 minutes at room temperature. The optical density of each well was then measured with a microplate spectrophotometer at a wavelength of 600 nm. The percent cell viability was calculated by the following equation: [formula]
as §4
An MTT assay to determine the cytotoxicity of WP 546 and WP 549 to AD 198-resistant {P 388 (R)} and AD 198-sensitive {P388 (S)} cells was performed in a manner similar to that described above.

[10] = system: tumor cells resistant to doxorubicin, AD 198, and vinblastine; experiment: Cytotoxicity against drug-resistant tumor cells (general statement); type: cell-based
[11] = KB 3-1 (S), MTT, 1 h drug incubation, read-out: ID50 (the source's name)
[12] = KB V1 (R), MTT, 1 h drug incubation, read-out: ID50 (the source's name)
[13] = J774.2, read-out: ID50 (the source's name)
[14] = J7/A300, read-out: ID50 (the source's name)
[15] = J7/40V, read-out: ID50 (the source's name)

| Structure (SMILES) | RI (ID50 KB V1/ID50 KB 3-1) [2] | RI J7/A300 [4] | RI J7/40V [5] | IC50 [1, 11] | IC50 [2, 12] | cytotoxicity (in words) [2] | IC50 [8] | IC50 [9] | RI [9] | cytotoxicity (in words) [9] | cytotoxicity (in words) ([3]; J774.2) | IC50 [3, 13] | cytotoxicity (in words) [4] | IC50 [4, 14] | cytotoxicity (in words) ([5]; J7/40V) | IC50 [5, 15] | cytotoxicity (in words) [10] | further results |
| --- | --- | --- | --- | --- | --- | --- | --- | --- | --- | --- | --- | --- | --- | --- | --- | --- | --- | --- |
| COc1cccc2c1C(=O)c1c(O)c3c(c(O)c1C2=O)C[C@@](O)(C(=O)CO)C[C@@H]3O[C@H]1C[C@H](N)[C@H](O)[C@H](C)O1 [Doxorubicin, doxorubicin] | 58.2 | 24 | 31 |  |  |  |  |  |  |  |  |  |  |  |  |  |  | IC50 ([1]; KB 3-1, 1 h, read-out: ID50): 1.1 µg/mL (≈ 2.02 µM); IC50 ([2]; KB-V1, 1 h, read-out: ID50): 64 µg/mL (≈ 118 µM); IC50 ([3]; J774.2, read-out: ID50): 24 nM; IC50 ([4]; read-out: ID50): 586 nM; IC50 ([5]; read-out: ID50): 755 nM; efficacy of 96-hr continuous infusion [6]: as effective as; toxicity of 96-hr continuous infusion [6]: much less toxic; adverse systemic effects ([7]; in vivo): acute myelosuppression, cumulative cardiotoxicity, and gastrointestinal toxicity; cardiomyopathy ([7]; related to total dose): unusual cardiomyopathy, the occurrence of which is related to the total dose of the drug; it is often irreversible |
| COc1cccc2c1C(=O)c1c(O)c3c(c(O)c1C2=O)C[C@@](O)(C(=O)CO)C[C@@H]3O[C@H]1C[C@H](OCc2ccccc2)[C@H](O)[C@H](C)O1 [WP 546, 7-O-(3-O-benzyl-2,6-dideoxy-α-L-lyxo-hexopyranosyl)adriamycinone] | 0.9 | 2.2 | 2.2 | 4.6 µg/mL (≈ 7.25 µM) | 4.1 µg/mL (≈ 6.46 µM) | unexpectedly more cytotoxic against MDR cells than against parent cells; also recorded: ability to kill DOX-resistant and vinblastine resistant cells; also recorded: shown to kill KB V1 cells | 920 ± 360 nM | 690 ± 230 nM | 0.8 | more cytotoxic towards cells selected for the resistance than that of a wild type; also recorded: demonstrated cytotoxicity | shown to kill KB V1 cells and J774.2 cells | 1100 nM | demonstrated cytotoxicity | 2430 nM | shown to have cytotoxic effects | 2350 nM | surprisingly broad cytotoxicity; also recorded: unexpected cytotoxic activity; also recorded: very high cytotoxicity | cytotoxicity (in words) ([10]; listed as 3'-O-benzyl-doxorubicin): surprisingly similar in DOX-sensitive and DOX-resistant cell lines |
| CCCCC(=O)OCC(=O)[C@]1(O)Cc2c(O)c3c(c(O)c2[C@@H](O[C@H]2C[C@H](OCc4ccccc4)[C@H](O)[C@H](C)O2)C1)C(=O)c1c(OC)cccc1C3=O [WP 549, 7-O-(3-O-benzyl-2,6-dideoxy-α-L-lyxo-hexopyranosyl)-14-O-valeroyl-adriamycinone] | 0.5 | 1.9 | 2.3 | 8.9 µg/mL (≈ 12.4 µM) | 4.7 µg/mL (≈ 6.54 µM) | unexpectedly more cytotoxic against MDR cells than against parent cells; also recorded: ability to kill DOX-resistant and vinblastine resistant cells; also recorded: shown to kill KB V1 cells | 1410 ± 230 nM | 730 ± 80 nM | 0.5 | more cytotoxic towards cells selected for the resistance than that of a wild type; also recorded: demonstrated cytotoxicity | shown to kill KB V1 cells and J774.2 cells | 1430 nM | demonstrated cytotoxicity | 2770 nM | shown to have cytotoxic effects | 3150 nM | surprisingly broad cytotoxicity; also recorded: unexpected cytotoxic activity; also recorded: very high cytotoxicity |  |
| COc1cccc2c1C(=O)c1c(O)c3c(c(O)c1C2=O)C[C@@](O)(C(C)=O)C[C@@H]3O[C@H]1C[C@H](N)[C@H](O)[C@H](C)O1 [daunorubicin] |  |  |  |  |  |  |  |  |  |  |  |  |  |  |  |  |  | cardiomyopathy ([7]; in vivo): unusual cardiomyopathy, the occurrence of which is related to the total dose of the drug; it is often irreversible |
| CC[C@]1(O)C[C@@H]2CN(CCc3c([nH]c4ccccc34)[C@@](C(=O)OC)(c3cc4c(cc3OC)N(C)[C@H]3[C@@](O)(C(=O)OC)[C@H](OC(C)=O)[C@]5(CC)C=CCN6CC[C@]43[C@@H]65)C2)C1 [vinblastine, reference compound] |  |  |  |  |  |  |  |  |  |  |  |  |  |  |  |  |  | resistance of cell line to the selecting drug ([5]; J7/40V selected for resistance to vinblastine): 120 -fold |
